# Assay results taken from patent publication US20240181007A1, “COMPOSITIONS AND METHODS FOR TREATING PULMONARY HYPERTENSION” (Acceleron Pharma Inc., priority 2021, published 2024).
# Test system: TAC-PH mice
# Test: Transverse aortic constriction (TAC) induced PH mouse model, BALB/cJ (Example 12)
# Assay type: in vivo
# Conditions: day 42, relative to TAC PBS
# Source text: The effects of an ActRIIA-mFc fusion polypeptide (SEQ ID NO: 56) was examined in a mouse model of left ventricular systolic dysfunction (also referred to as HErEF) of pulmonary hypertension (PH) and valvular heart disease. In this model, BALB/cJ mice underwent transverse aortic constriction (TAC) to induce left heart failure, and right heart and pulmonary remodeling. See, e.g., Xiong P Y. et al. Hypertension 2018, 71(1):34-55 and Chen Y. et al. Hypertension 2012, 59(6):1170-1178.
# Forty-four BALB/cJ male mice (10 wks old) underwent TAC surgery and fourteen age-matched animals underwent a mock surgical procedure (Sham) at day 0. Two weeks after the surgery, TAC-PH mice were randomized into three groups. i) fourteen mice were injected subcutaneously with vehicle control (phosphate buffered saline (PBS)), twice weekly for 4 weeks starting from day 14 after surgery, “TAC PBS”; ii) fifteen mice were injected subcutaneously with ActRIIA-mFc at a dose of 3 mg/kg twice weekly for 4 weeks starting from day 14 after TAC surgery, “TAC ActRIIA-mFc 3 mpk”; and iii) fifteen mice were injected subcutaneously with ActRIIA-mFc at a dose of 10 mg/kg twice weekly for 4 weeks starting from day 14 after TAC surgery, “TAC ActRIIA-mFc 10 mpk.” At the end of the study, echocardiography and pressure-volume catheter were performed to measure left and right ventricular remodeling and functional changes before animals were euthanized for heart and lung collection. Hearts and lungs of each mouse were weighed, fixed in 10% formalin, embedded in paraffin, and sectioned for Masson's trichrome stain to assess fibrosis.
# Prior to euthanasia, in vivo cardiac function was assessed by transthoracic echocardiography (Acuson P300, 18 MHz transducer; Siemens) in conscious mice. From left ventricle (LV) short axis view, M-mode echocardiogram was acquired to measure left ventricle end diastolic diameter (LVEDD), and left ventricle end systolic diameter (LVESD). Fractional shortening (FS) was calculated from the end-diastolic diameter (EDD) and end-systolic diameter (ESD) using the following equation: FS=100%×[(EDD−ESD)/EDD]. Early diastolic filling peak velocity (E), early diastolic mitral annular velocity (E′), and isovolumetric relaxation time (IVRT) were measured from the medial or septal wall at the mitral valve level from tissue Doppler image. LV diastolic function was assessed by measuring the E/E′ ratio and IVRT. Three to five beats were averaged for each mouse measurement. RV free wall thickness (RVFWT) was measured using M-mode in a modified parasternal long-axis view through the aortic valve. Pulmonary artery acceleration time (PAAT) was measured as the time from start to peak velocity of blood flow in the lumen of the main pulmonary artery distal to the pulmonary valve as obtained from the pulse-wave doppler recording.
# On day 42, mice were anesthetized by an intraperitoneal injection of ketamine/xylazine (100/5 mg/kg) to evaluate left and right ventricular function by Millar pressure-volume conductance catheter. The respiration was supported by a small animal ventilator.
# Thoracotomy was made through 4-5 intercostal space, and the heart was exposed. A pressure-volume catheter (1.0-Fr, PVR-1035, Millar Instruments, Houston, TX, USA) was inserted into the left ventricle and right ventricle from the apex. Ventricular pressure and volume were calculated with LabChart 7 software. Ejection fraction was derived. Afterwards, animals were euthanized for heart and lung collection. Cardiac hypertrophy was measured by heart weight (HW) normalized by tibial length (TL). Left ventricle (LV), right ventricle (RV) and lung of each mouse were separated, fixed in 10% formalin, embedded in paraffin, and sectioned for Masson's trichrome stain to assess fibrosis. Serum and urine samples were collected at the end of the study.
substance,measurement,setting,value
ActRIIA-mFc: ActRIIA-mFc fusion polypeptide (SEQ ID NO: 56); extracellular domain fused to murine IgG2a Fc domain with a linker,LV ejection fraction,"3 mpk or 10 mpk s.c. twice weekly for 4 weeks from day 14 after TAC, FIG. 45",restored LV ejection fraction
same,"cardiac hypertrophy, heart weight/tibia length (HW/TL)","3 mpk or 10 mpk s.c. twice weekly for 4 weeks from day 14 after TAC, FIG. 46",significantly reduced cardiac hypertrophy
same,IVRT,"3 mpk or 10 mpk s.c. twice weekly for 4 weeks from day 14 after TAC, FIG. 48",reduced IVRT
same,RVSP,"3 mpk or 10 mpk s.c. twice weekly for 4 weeks from day 14 after TAC, FIG. 49",reduced RVSP
same,RVFWT,"3 mpk or 10 mpk s.c. twice weekly for 4 weeks from day 14 after TAC, FIG. 50",significantly reduced elevated RVFWT
same,PAAT,"3 mpk or 10 mpk s.c. twice weekly for 4 weeks from day 14 after TAC, FIG. 51",increased PAAT
same,LV fibrosis,"3 mpk or 10 mpk s.c. twice weekly for 4 weeks from day 14 after TAC, FIG. 52",significantly reduced
same,RV fibrosis,"3 mpk or 10 mpk s.c. twice weekly for 4 weeks from day 14 after TAC, FIG. 53",significantly reduced
same,lung fibrosis,"3 mpk or 10 mpk s.c. twice weekly for 4 weeks from day 14 after TAC, FIG. 54",significantly reduced lung fibrosis
same,E/E′ ratio,"3 mpk s.c. twice weekly for 4 weeks from day 14 after TAC, FIG. 47",reduced E/E′ ratio at 3 mpk
